# In US20230047816A1 (priority 2018, published 2023):
# Biological target: Recombinant full length human PFKFB3 (Homo sapiens, UniProt Q16875)
# Test: PFKFB3 kinase activity assay (ADP production, ADP-Glo)
# Procedure: Recombinant full length human PFKFB3 (or PFKFB4) protein purified from Sf9 baculoviral system was acquired from SignalChem (Cat. #P323-30G or P324-30G). ATP, Fructose-6-Phosphate and other chemicals were from Sigma-Aldrich. The kinase activity of the PFKFB3 (PFKFB4) protein was detected by measuring production of ADP from ATP in the presence of the Fructose-6-Phosphate substrate. The kinase reactions were assembled in 384 well plates in a total volume of 25 μL. Test compounds were serially diluted in DMSO. Reactions were set up by first mixing test compounds with enzyme and pre-incubating for 15 min. The ATP and Fructose-6-Phosphate substrates were next added to initiate the kinase reactions.
# The compounds of invention listed below in this example were tested at various concentrations (which also added 1% DMSO from compounds, to the final solution) as described below. The kinase reactions were allowed to proceed for 1 h at room temperature. Aliquots of the reaction mixtures (5 μL) were transferred to fresh white 384 well plates and mixed with 5 μL of the ADP-Glo reagent (Promega), followed by incubation for 30 min. The luminescent Kinase Detection reagent was added (10 μL) and, following additional incubation for 15 min, the plates were read on luminescence plate reader (Analyst HT). Positive (100%-inhibition) and negative (0%-inhibition) control samples were assembled in each assay plate and were used to calculate percent inhibition values of test compounds. All experiments were performed in duplicate.
# Recombinant full length human PFKFB3, sequence (Q16875 whole entry): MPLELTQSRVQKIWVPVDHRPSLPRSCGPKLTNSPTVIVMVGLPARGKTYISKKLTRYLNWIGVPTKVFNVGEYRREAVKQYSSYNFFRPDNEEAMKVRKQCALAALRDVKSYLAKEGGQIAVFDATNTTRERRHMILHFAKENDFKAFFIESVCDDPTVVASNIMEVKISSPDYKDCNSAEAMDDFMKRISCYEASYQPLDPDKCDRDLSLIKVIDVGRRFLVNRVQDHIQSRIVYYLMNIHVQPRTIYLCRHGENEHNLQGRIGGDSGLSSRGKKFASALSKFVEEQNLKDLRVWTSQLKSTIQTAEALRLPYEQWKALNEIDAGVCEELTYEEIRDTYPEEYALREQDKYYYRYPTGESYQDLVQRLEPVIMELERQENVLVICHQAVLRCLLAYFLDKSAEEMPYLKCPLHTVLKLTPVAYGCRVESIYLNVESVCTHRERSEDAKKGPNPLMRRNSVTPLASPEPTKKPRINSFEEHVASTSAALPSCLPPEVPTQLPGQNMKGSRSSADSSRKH
row,Compound,IC50
1,"NC(COC(=O)c1ccc(-c2ccccc2)cc1N1C(=O)c2ccc(-c3c[nH]nn3)cc2C1=O)C(=O)O (stereo in doubt) [Compound 73, 3-[1,3-Dioxo-5-(1H-[1,2,3]triazol-4-yl)-1,3-dihydroisoindol-2-yl]biphenyl-4-carboxylic acid (2S)-2-amino-2-carboxy-ethyl ester]",2 to 5 µM
2,"O=C(OCCN1CCCC1)c1ccc(-c2ccccc2)cc1N1C(=O)c2ccc(-c3c[nH]nn3)cc2C1=O [Compound 68, 3-[1,3-Dioxo-5-(1H-[1,2,3]triazol-4-yl)-1,3-dihydroisoindol-2-yl]biphenyl-4-carboxylic acid 2-pyrrolidin-1-yl-ethyl ester]",2 to 5 µM
3,"COCCOC(=O)c1ccc(-c2ccccc2)cc1N1C(=O)c2ccc(-c3c[nH]nn3)cc2C1=O [Compound 69, 3-[1,3-Dioxo-5-(1H-[1,2,3]triazol-4-yl)-1,3-dihydroisoindol-2-yl]biphenyl-4-carboxylic acid 2-methoxy-ethyl ester]",2 to 5 µM
4,"O=C(OCC(O)CO)c1ccc(-c2ccccc2)cc1N1C(=O)c2ccc(-c3c[nH]nn3)cc2C1=O (centres unmarked) [Compound 70, 3-[1,3-Dioxo-5-(1H-[1,2,3]triazol-4-yl)-1,3-dihydroisoindol-2-yl]biphenyl-4-carboxylic acid 2,3-dihydroxy-propyl ester]",5 to 20 µM
5,"O=C(O)c1cc(-c2cn[nH]c2)ccc1N1C(=O)c2ccc(-c3c[nH]nn3)cc2C1=O [Compound 71, 2-[1,3-Dioxo-5-(1H-[1,2,3]triazol-4-yl)-1,3-dihydroisoindol-2-yl]-5-(1H-pyrazol-4-yl)-benzoic Acid]",0.5 to 2 µM
6,"NCCOC(=O)c1ccc(-c2ccccc2)cc1N1C(=O)c2ccc(-c3c[nH]nn3)cc2C1=O [Compound 72, 3-[1,3-Dioxo-5-(1H-[1,2,3]triazol-4-yl)-1,3-dihydroisoindol-2-yl]biphenyl-4-carboxylic Acid 2-amino-ethyl ester]",< 20 µM
7,"CC(C)[C@H](N)C(=O)OCCOC(=O)c1ccc(-c2ccccc2)cc1N1C(=O)c2ccc(-c3c[nH]nn3)cc2C1=O [Compound 74, 3-[1,3-Dioxo-5-(1H-[1,2,3]triazol-4-yl)-1,3-dihydroisoindol-2-yl]biphenyl-4-carboxylic acid 2-{[(2S)-2-amino-3-methylbutanoyl]oxy}ethyl ester]",< 20 µM
8,"O=C(O)c1ccc2c(c1)C(=O)N(c1ccc(-c3c[nH]cn3)cc1C(=O)O)C2=O [Compound 75, 2-[2-Carboxy-4-(1H-imidazol-4-yl)-phenyl]-1,3-dioxo-2,3-dihydro-1H-isoindole-5-carboxylic Acid]",< 0.5 µM
9,"Cn1cncc1-c1ccc(N2C(=O)c3ccc(C(=O)O)cc3C2=O)c(C(=O)O)c1 [Compound 76, 2-[2-Carboxy-4-(3-methyl-3H-imidazol-4-yl)-phenyl]-1,3-dioxo-2,3-dihydro-1H-isoindole-5-carboxylic Acid]",< 0.5 µM
10,"CNCCOC(=O)c1cc(-c2c[nH]cn2)ccc1N1C(=O)c2ccc(C(=O)O)cc2C1=O [Compound 77, 2-[4-(1H-Imidazol-4-yl)-2-(2-methylaminoethoxycarbonyl)-phenyl]-1,3-dioxo-2,3-dihydro-1H-isoindole-5-carboxylic Acid]",0.5 to 2 µM
11,"CN(C)CCOC(=O)c1cc(-c2ccccc2)ccc1N1C(=O)c2ccc(-c3c[nH]nn3)cc2C1=O [Compound 78, 4-[1,3-Dioxo-5-(1H-[1,2,3]triazol-4-yl)-1,3-dihydroisoindol-2-yl]biphenyl-3-carboxylic acid 2-dimethylamino-ethyl ester]",5 to 20 µM
12,"O=C(OCCN1CCCC1)c1cc(-c2ccccc2)ccc1N1C(=O)c2ccc(-c3c[nH]nn3)cc2C1=O [Compound 79, 4-[1,3-Dioxo-5-(1H-[1,2,3]triazol-4-yl)-1,3-dihydroisoindol-2-yl]biphenyl-3-carboxylic acid 2-pyrrolidin-1-yl-ethyl ester]",5 to 20 µM
13,"O=C(OCCN1CCOCC1)c1cc(-c2ccccc2)ccc1N1C(=O)c2ccc(-c3c[nH]nn3)cc2C1=O [Compound 80, 4-[1,3-Dioxo-5-(1H-[1,2,3]triazol-4-yl)-1,3-dihydroisoindol-2-yl]biphenyl-3-carboxylic acid 2-morpholin-4-yl-ethyl ester]",< 20 µM
14,"CNCCOC(=O)c1cc(-c2ccccc2)ccc1N1C(=O)c2ccc(-c3c[nH]nn3)cc2C1=O [Compound 81, 4-[1,3-Dioxo-5-(1H-[1,2,3]triazol-4-yl)-1,3-dihydroisoindol-2-yl]biphenyl-3-carboxylic acid 2-methylamino-ethyl ester]",< 20 µM
15,"O=C1c2ccc(-c3c[nH]nn3)cc2C(=O)N1c1cc(-c2ccccc2)cnc1O [Compound 83, 2-(2-Hydroxy-5-phenylpyridin-3-yl)-5-(1H-[1,2,3]triazol-4-yl)-isoindole-1,3-dione]",2 to 5 µM
16,"O=C1c2ccc(-c3c[nH]nn3)cc2C(=O)N1c1cc(-c2ccccc2)ccn1 [Compound 84, 2-(4-Phenylpyridin-2-yl)-5-(1H-[1,2,3]triazol-4-yl)-isoindole-1,3-dione]",5 to 20 µM
17,"O=C1c2ccc(-c3c[nH]nn3)cc2C(=O)N1c1cc(-c2ccccc2)cc[n+]1[O-] [Compound 85, 2-{1,3-Dioxo-5-(1H-[1,2,3]triazol-4-yl)-2,3-dihydro-1H-isoindol-2-yl}-4-phenylpyridine N-oxide]",5 to 20 µM
18,"O=C1c2ccc(-c3c[nH]nn3)cc2C(=O)N1c1ccc(-c2ccccc2)cn1 [Compound 86, 2-(5-Phenylpyridin-2-yl)-5-(1H-[1,2,3]triazol-4-yl)-isoindole-1,3-dione]",< 20 µM

row,Compound,IC50
1,"O=C1c2ccc(-c3c[nH]nn3)cc2C(=O)N1c1cc(-c2ccc(F)cc2)ccn1 [Compound 87, 2-[4-(4-Fluorophenyl)-pyridin-2-yl]-5-(1H-[1,2,3]triazol-4-yl)-isoindole-1,3-dione]",5 to 20 µM
2,"Cc1cc(-c2ccccc2)cc(N2C(=O)c3ccc(-c4c[nH]nn4)cc3C2=O)n1 [Compound 88, 2-(6-Methyl-4-phenylpyridin-2-yl)-5-(1H-[1,2,3]triazol-4-yl)-isoindole-1,3-dione]",5 to 20 µM
3,"O=C1c2ccc(-c3c[nH]nn3)cc2C(=O)N1c1ccc(-c2ccccc2)nc1O [Compound 89, 2-(2-Hydroxy-6-phenylpyridin-3-yl)-5-(1H-[1,2,3]triazol-4-yl)-isoindole-1,3-dione]",< 20 µM
4,"Cc1cnc(N2C(=O)c3ccc(-c4c[nH]nn4)cc3C2=O)cc1-c1ccc(F)cc1F [Compound 90, 2-[4-(2,4-Difluoro-phenyl)-5-methyl-pyridin-2-yl]-5-(1H-[1,2,3]triazol-4-yl)-isoindole-1,3-dione]",2 to 5 µM
5,"COC(=O)c1ccc(-c2ccccc2)cc1N1Cc2ccc(-c3c[nH]nn3)cc2C1=O [Compound 91, 3-[1-Oxo-6-(1H-[1,2,3]triazol-4-yl)-1,3-dihydroisoindol-2-yl]biphenyl-4-carboxylic acid methyl ester]",< 20 µM
6,"O=C(O)c1ccc(-c2ccccc2)cc1N1Cc2ccc(-c3c[nH]nn3)cc2C1=O [Compound 92, 3-[1-Oxo-6-(1H-[1,2,3]triazol-4-yl)-1,3-dihydroisoindol-2-yl]biphenyl-4-carboxylic Acid]",2 to 5 µM
7,"NC(=O)c1ccc(-c2ccccc2)cc1N1C(=O)c2ccc(-c3c[nH]nn3)cc2C1=O [Compound 93, 3-[1,3-Dioxo-5-(1H-[1,2,3]triazol-4-yl)-1,3-dihydroisoindol-2-yl]biphenyl-4-carboxylic acid amide]",5 to 20 µM
8,"O=C(O)c1cc(-c2ccccc2)ccc1N1C(=O)c2ccc(-c3nnn[nH]3)cc2C1=O [Compound 94, 4-[1,3-Dioxo-5-(1H-tetrazol-5-yl)-1,3-dihydroisoindol-2-yl]biphenyl-3-carboxylic Acid]",< 0.5 µM
9,"O=C(O)c1ccc(-c2ccccc2)cc1N1C(=O)c2ccc(-c3nnn[nH]3)cc2C1=O [Compound 95, 3-[1,3-Dioxo-5-(1H-tetrazol-5-yl)-1,3-dihydroisoindol-2-yl]biphenyl-4-carboxylic Acid]",< 0.5 µM
10,"CC(C)OC(=O)c1ccc(-c2ccccc2)cc1N1C(=O)c2ccc(-c3nnn[nH]3)cc2C1=O [Compound 96, 3-[1,3-Dioxo-5-(1H-tetrazol-5-yl)-1,3-dihydroisoindol-2-yl]biphenyl-4-carboxylic acid isopropyl ester]",5 to 20 µM
11,"CN(C)CCOC(=O)c1ccc(-c2ccccc2)cc1N1C(=O)c2ccc(-c3nnn[nH]3)cc2C1=O [Compound 97, 3-[1,3-Dioxo-5-(1H-tetrazol-5-yl)-1,3-dihydroisoindol-2-yl]biphenyl-4-carboxylic acid 2-dimethylamino-ethyl ester]",< 0.5 µM
12,"NC(=O)c1ccc(-c2ccccc2)cc1N1C(=O)c2ccc(-c3nnn[nH]3)cc2C1=O [Compound 98, 3-[1,3-Dioxo-5-(1H-tetrazol-5-yl)-1,3-dihydroisoindol-2-yl]biphenyl-4-carboxylic acid amide]",2 to 5 µM
13,"COC(=O)c1ccc(-c2ccc(F)c(F)c2)cc1N1Cc2ccc(-c3nnn[nH]3)cc2C1=O [Compound 99, 3′,4′-Difluoro-3-[1-oxo-6-(1H-tetrazol-5-yl)-1,3-dihydroisoindol-2-yl]biphenyl-4-carboxylic acid methyl ester]",5 to 20 µM
14,"O=C(O)c1ccc(-c2ccc(F)c(F)c2)cc1N1Cc2ccc(-c3nnn[nH]3)cc2C1=O [Compound 100, 3′,4′-Difluoro-3-[1-oxo-6-(1H-tetrazol-5-yl)-1,3-dihydroisoindol-2-yl]biphenyl-4-carboxylic Acid]",0.5 to 2 µM
15,"NC(=O)c1ccc(-c2ccc(F)c(F)c2)cc1N1Cc2ccc(-c3nnn[nH]3)cc2C1=O [Compound 101, 3′,4′-Difluoro-3-[1-oxo-6-(1H-tetrazol-5-yl)-1,3-dihydroisoindol-2-yl]biphenyl-4-carboxylic acid amide]",5 to 20 µM
16,"COC(=O)c1ccc(-c2ccccc2)cc1N1Cc2ccc(C(=O)O)cc2C1=O [Compound 102, 2-(4-Methoxycarbonylbiphenyl-3-yl)-3-oxo-2,3-dihydro-1H-isoindole-5-carboxylic Acid]",< 20 µM
17,"COC(=O)c1ccc(-c2ccccc2)cc1N1Cc2ccc(C(=O)NS(C)(=O)=O)cc2C1=O [Compound 103, 3-(6-Methanesulfonylaminocarbonyl-1-oxo-1,3-dihydroisoindol-2-yl)biphenyl-4-carboxylic acid methyl ester]",< 20 µM
